This note sets out measurements from ChEMBL document CHEMBL3244151, “9-hydroxy-1,2,3,4,5,6-hexahydro-1,5-methano-3-benzazocine derivatives as analgesics” (1977).

SMILES strings stand for the structures.

In the assay the test system is Mus musculus. Briefly: Analgesic activity in sc dosed albino dd mouse by tail pressure stimuli method. Format: functional.
Regarding `Br.CN1C[C@@H]2Cc3ccc(O)cc3[C@@](C)(C2)C1`, the 50% effect level (ED50) was put at a dose of 8.4 mg/kg.
Consider `Br.C[C@H]1[C@H]2Cc3ccc(O)cc3[C@]1(C)CN(C)C2`, for which the 50% effect level (ED50) was put at a dose of 28 mg/kg.
Regarding `Br.C[C@@H]1[C@H]2Cc3ccc(O)cc3[C@]1(C)CN(C)C2`, the ED50 (in general, the midpoint of the dose-response relation) amounted to 32.8 mg/kg.
Compound `CN1C[C@@H]2Cc3ccccc3[C@@](C)(C2)C1.Cl` registered an ED50 of over 50 mg/kg.
Compound `COc1ccc2c3c1O[C@H]1[C@@H](O)C=C[C@H]4[C@@H](C2)N(C)CC[C@@]341.COc1ccc2c3c1O[C@H]1[C@@H](O)C=C[C@H]4[C@@H](C2)N(C)CC[C@@]341.O.O=P(O)(O)O.O=P(O)(O)O` [CODEINE PHOSPHATE] displayed an ED50 of 9.2 mg/kg.
